# Data reported in patent publication US9000194B2, “Mangromicin compound and production method therefor” (The Kitasato Institute, priority 2011, dated 2015).
# Key:
# [1] = test system: human fetal lung-derived normal fibroblast MRC-5 cells; assay: Cytotoxicity test (MTT assay); format: cell-based; conditions: for IC50: Homo sapiens, MRC5, 168 h, seven days culture, MTT assay, read-out: IC50 value MRC-5 cell; for Selectivity index (MRC-5 cytotoxicity IC50 / anti-trypanosoma IC50): (IC50 values for cytotoxicity)/(IC50 values for anti-trypanosoma activity)
# Experimental: J. Antibiotics, 54: 658 to 663, (2001)]. That is, the human fetal lung-derived normal fibroblast MRC-5 cells [can be provided by Dr. […], Belgium)] were maintained and subcultured in the MEM-medium containing 10% bovine fetal serum (FCS) and antibiotics and were used as the host cell model. […] The presence or absence of the proliferation of the MRC-5 cells was measured by colorimetric quantification by the MTT assay. […] Also, the selectivity index (SI) was calculated as (IC50 values for cytotoxicity)/(IC50 values for anti-trypanosoma activity).
# [2] = test system: Trypanosoma brucei brucei GUTat 3.1 strain; assay: In vitro inhibitory activity on trypanosoma protozoa proliferation (Alamar Blue); conditions: for IC50: Trypanosoma brucei, 72 h, read-out: IC50 value Trypanosoma brucei brucei GUTat3.1 strain
# [3] = test system: the microorganisms listed in Table 7; assay: Antibacterial activity, paper disc method, overall statement; format: cell-based; conditions: summary in words
# Experimental: The antibacterial activities of Mangromicins A, B and C of the present invention were measured by the following method. Filter paper discs (Advantec, a diameter of 6 mm) were impregnated with 10 μL of 1 mg/mL solutions of Mangromicins A, B and C in methanol, and air-dried for a certain period of time to remove the solvent. Subsequently, the discs were placed on agar plates each containing the test bacteria shown in Table 7, followed by culturing at 35° C. for 24 hours. The diameter of the growth inhibiting zones formed around the paper discs was measured.
# [4] = test system: Bacillus subtilis ATCC6633; assay: Antibacterial activity, paper disc method; format: cell-based; conditions: 6 mm disc, 10 μL of 1 mg/mL, 35° C., 24 hours, read-out: the diameter of inhibiton zones
SMILES,IC50 [1] [µg/mL],IC50 [2] [µg/mL],Selectivity index (MRC-5 cytotoxicity IC50 / anti-trypanosoma IC50) [1],antibacterial activities on the microorganisms listed in Table 7 [3],"anti-trypanosoma activity compared to suramin and eflornithine ([2]; T.b.b. GUTat 3.1 strain, relative to suramin and eflornithine)",zone of inhibition at 1000 µg/mL [4] [mm]
"NCCCC(N)(C(=O)O)C(F)F (centres unmarked) [Eflornithine, eflornithine, reference compound]",> 100,2.27,–,–,–,–
CCCC1C(O)=C2CCC3(C)CC(C)C(O3)C(O)C(O)C(C)C(=O)CC1OC2=O (centres unmarked) [Mangromicin A],16,2.44,6.6,almost no antibacterial activities,equivalent or slightly inferior,–
CCCC1C(O)=C2CCC3(C)CC(C)C(O3)C(O)/C=C(\C)C(=O)CC1OC2=O (centres unmarked) [Mangromicin B],92.6,43.4,2.1,almost no antibacterial activities,–,7
"Cc1ccc(C(=O)Nc2ccc(S(=O)(=O)O)c3cc(S(=O)(=O)O)cc(S(=O)(=O)O)c23)cc1NC(=O)c1cccc(NC(=O)Nc2cccc(C(=O)Nc3cc(C(=O)Nc4ccc(S(=O)(=O)O)c5cc(S(=O)(=O)O)cc(S(=O)(=O)O)c45)ccc3C)c2)c1 [Suramin, suramin, reference compound]",> 100,1.58,–,–,–,–
